# Experimental data from US20240226228A1, “ANTIMICROBIAL PEPTOID HAVING IMPROVED SELECTIVITY AND ANTIMICROBIAL COMPOSITION COMPRISING SAME” (priority 2021, published 2024).
# Like-named read-outs stand apart in the source and are kept apart here. Where a SMILES comes first, the peptide text is derived from it. [ ]: non-standard residue; d: D form. Gly(N(CH2)2(3-indolyl)) = O=C(O)CNCCc1c[nH]c2ccccc12; Nspe = C[C@H](NCC(=O)O)c1ccccc1; Nlys = NCCCCNCC(=O)O
# Tests used:
# red blood cells = assay: Hemolysis assay; type: cell-based, Sprague-Dawley mouse
# In short: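 Peptoid is mixed with 10% (v/v) PBS-washed erythrocytes (male Sprague-Dawley […], 13 weeks) and held 1 h at 37 °C. Hemolysis is calculated from 540 nm absorbance of the supernatant, with PBS as 0% and Triton X-100 as 100%.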
# in vitro = assay: in vitro
# Experimental: (§1) Human lung cells (MRC-5) were purchased from the Korean Cell Line Bank, and human keratinocytes (HaCaT) were purchased from the AmorePacific R&D Center. All cells were grown in a Dulbecco's modified Eagle's medium containing 10% fetal bovine serum under conditions of 5% CO2 and 37° C. To confirm the effect of a peptoid on cell growth, 3-(4,5-dimethylthiazol-2-yl)-5-(3-carboxymethoxyphenyl)-2-(4-sulfophenyl)-2H-tetrazolium (MTS) cell assay was performed to determine cell viability. An aliquot (100 μL) of a batch including 1.3×10^4 MRC-5 cells/mL or 3×10^4 HaCaT cells/mL was dispensed into each well of a 96-well plate. The cells were grown at 37° C. in a 5% CO2 humid atmosphere and allowed to adhere for 24 hours. When the cells reached approximately 70% confluency, the medium was replaced with serial dilutions of the peptoid stock and incubated for 24 hours. 20 μL of a CellTiter 96 aqueous non-radioactive cell proliferation assay reagent (Promega, USA) including a tetrazolium compound was added to each well.
# (§2) The contents in the plate were metabolized by incubating at 37° C. for 4 hours. An MTS-formazan product of viable cells was measured at 490 nm using a microplate reader, and cell viability (%) was calculated by Equation 2 below and compared with untreated cells.
# (§3) Cell viability (%)=[A/(Acontrol)]×100 [Equation 2]
# (§4) In Equation 2, A is the absorbance of a test well, and Acontrol is the average absorbance of a well containing untreated cells.
# (§5) The term “nd” shown in Table 19 below is the abbreviation for not determined, and indicates a value that is too small or too large to be measured.
# S. aureus ATCC 25923 = test system: S. aureus ATCC 25923
# In short: (§6)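 Cation-adjusted MHB2 cultures (18 h, subcultured 4 h) adjusted to 2×10^5–5×10^5 CFU/mL in medium with 0.02% BSA and 0.001% acetic acid.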
# E. coli ATCC25922 = test system: E. coli ATCC25922
# In short: as §6
# [1] = HPLC to confirm peptoid decomposition after counter ion substitution; type: physicochemical; conditions: HPLC at 220 nm; HCl and AcOH
# Experimental: FIGS. 76 to 83 are the HPLC results for Peptoids 1, 10, 11, 14, 15, 29, 32 and 37 of the present inventive concept to confirm the decomposition of the peptoids after counter ion substitution using (a) HCl and (b) AcOH.
# Referring to FIGS. […], HPLC was performed for Peptoids 1, 10, 11, 14, 15, 29, 32 and 37 of the present inventive concept. Since the chloride (HCl) is a stronger acid than TFA, it can decompose acid-vulnerable peptoid compounds.
# P. aeruginosa KCTC 1637 = assay: MIC in multidrug-resistant bacteria, modified microdilution method; type: cell-based; conditions: Table 14
# Experimental: (§7) The MIC of the prepared peptoid in multidrug-resistant bacteria was measured using a modified microdilution method in a Difco Mueller Hinton medium, and a test was performed on a bacterial pathogen panel with resistant and tolerance to general antibiotics.
# (§8) Briefly, a medium containing bovine serum albumin and 0.001% acetic acid was used to continuously dilute a peptoid concentrate 10-times stronger than the final concentration. 10 uμL of the 10-time stronger peptoid concentrate and 90 μL of a Muleller Hinton medium were added to each well of a 96-well plate. Bacteria were added to the plate until the final concentration reached 2×10^5 CFU/mL and then incubated at […] overnight. MIC was defined as a concentration at which bacterial growth is not observed.
# [2] = test system: Enterococcus faecalis KCTC 3511; assay: as above; type: cell-based; conditions: Table 14
# Experimental: as §7, §8
# [3] = test system: Enterococcus Faecium KCTC 13225; assay: as above; type: cell-based; conditions: Table 14
# Experimental: as §7, §8
# E. coli KCTC 2411 = assay: as above; type: cell-based; conditions: Table 14
# Experimental: as §7, §8
# [4] = test system: Enterobacter SP KCTC 2625; assay: as above; type: cell-based; conditions: Table 14
# Experimental: as §7, §8
# [5] = test system: human keratinocytes (HaCaT); assay: in vitro
# Experimental: as §1, §2, §3, §4, §5
# Human lung cells (MRC-5) = assay: in vitro
# Experimental: as §1, §2, §3, §4, §5
# [6] = Table 18, TFA salt vs counter ion-substituted peptoids
# [7] = Tables 11-13, concentration that induces hemolysis in 10% red blood cells
# [8] = Tables 11-13, concentration that induces hemolysis in 50% red blood cells
# [9] = Table 18, TFA salt vs counter ion-substituted (HCl, AcOH) peptoids
# [10] = Tables 11-13, 24 hours at 37° C., maximum concentration 25 μM
Compound,HC10 (red blood cells; [7]) [µM],HC50 (red blood cells; [8]) [µM],MIC S. aureus ATCC 25923 (S. aureus ATCC 25923; [9]) [µM],MIC S. aureus ATCC 25923 (S. aureus ATCC 25923; [10]) [µM],MIC E. coli ATCC25922 (E. coli ATCC25922; [9]) [µM],MIC E. coli ATCC25922 (E. coli ATCC25922; [10]) [µM],peptoid decomposition after counter ion substitution (in words) [1],MIC P. aeruginosa KCTC 1637 (P. aeruginosa KCTC 1637) [µM],MIC Enterococcus faecalis KCTC 3511 [2] [µM],MIC Enterococcus Faecium KCTC 13225 [3] [µM],MIC E. coli KCTC 2411 (E. coli KCTC 2411) [µM],MIC Enterobacter SP KCTC 2625 [4] [µM],"CC50 at 24 h (in vitro; human, LC50 MRC-5) [µM]",lower toxicity against HaCaT cells compared to the peptoid having a TFA salt [5] [%],lower toxicity against MRC-5 cells compared to the peptoid having a TFA salt (Human lung cells (MRC-5)) [%],"CC50 at 24 h (in vitro; human, LC50 HaCaT) [µM]",further results
"C[C@@H](c1ccccc1)N(CC(N)=O)C(=O)CN(C(=O)CN(CCCCN)C(=O)CN(C(=O)CN(C(=O)CN(CCCCN)C(=O)CN(C(=O)CN(C(=O)CN(CCCCN)C(=O)CN(C(=O)CN(C(=O)CNCCCCN)[C@@H](C)c1ccccc1)[C@@H](C)c1ccccc1)[C@@H](C)c1ccccc1)[C@@H](C)c1ccccc1)[C@@H](C)c1ccccc1)[C@@H](C)c1ccccc1)[C@@H](C)c1ccccc1 [Peptoid 1, H-NLys-Nspe-Nspe-NLys-Nspe-Nspe-NLys-Nspe-Nspe-NLys-Nspe-Nspe-NH2, reference compound] (H-[Nlys][Nspe][Nspe][Nlys][Nspe][Nspe][Nlys][Nspe][Nspe][Nlys][Nspe][Nspe]-NH2)",8.3,22.9,1.6,1.6,6.3,6.3,almost no peptoid decomposition occurred,25,0.8,< 0.8,6.3,6.3,,,,,"HC10 (red blood cells; [6]): 15.9 µM; HC50 (red blood cells; [6]): 49.0 µM; Hmax (100 μM) (red blood cells; [6]): 72.1 ± 2.1%; Hmax (100 μM) (red blood cells; Tables 11-13, hemolysis rate at maximum peptoid concentration): 112.3 ± 0.7%; HD10 (red blood cells; first value of HD10/HD50 cell, hemolysis, in µM): 22.9; Hmax (100 μM) (red blood cells; hemolysis at 100 μM): 75.8; HD50 (red blood cells; second value of HD10/HD50 cell, hemolysis, in µM): 79.0; CC50 at 24 h (in vitro): 7.3 µM; CC50 at 24 h (in vitro; LC50 MRC-5, 24 hours incubation, concentration that causes 50% cell lethality): 8.1 µM; MIC S. aureus ATCC 25923 (S. aureus ATCC 25923; gram-positive bacteria, S. aureus ATCC25923 strain): 1.6 µM; MIC E. coli ATCC25922 (E. coli ATCC25922; gram-negative bacteria, E. coli ATCC25922 strain): 3.1 µM"
"C[C@@H](c1ccccc1)N(CC(=O)N(CCCCN)CC(=O)N(CC(=O)N(CC(=O)N(CCCCN)CC(=O)N(CC(=O)N(CC(=O)N(CCCCN)CC(=O)N(CCc1c[nH]c2ccccc12)CC(=O)N(CCc1c[nH]c2ccccc12)CC(N)=O)[C@@H](C)c1ccccc1)[C@@H](C)c1ccccc1)[C@@H](C)c1ccccc1)[C@@H](C)c1ccccc1)C(=O)CN(C(=O)CNCCCCN)[C@@H](C)c1ccccc1 [Peptoid 11, H-NLys-Nspe-Nspe-NLys-Nspe-Nspe-NLys-Nspe-Nspe-NLys-NhTrp-NhTrp-NH2] (H-[Nlys][Nspe][Nspe][Nlys][Nspe][Nspe][Nlys][Nspe][Nspe][Nlys][Gly(N(CH2)2(3-indolyl))][Gly(N(CH2)2(3-indolyl))]-NH2)",,,1.6,1.6,3.1,6.3,almost no peptoid decomposition occurred,,< 0.8,< 0.8,12.5,6.3,6.9,,,,
"C[C@@H](c1ccccc1)N(CC(N)=O)C(=O)CN(C(=O)CN(CCCCN)C(=O)CN(C(=O)CN(C(=O)CN(CCCCN)C(=O)CN(C(=O)CN(C(=O)CN(CCCCN)C(=O)CN(CCc1c[nH]c2ccccc12)C(=O)CN(CCc1c[nH]c2ccccc12)C(=O)CNCCCCN)[C@@H](C)c1ccccc1)[C@@H](C)c1ccccc1)[C@@H](C)c1ccccc1)[C@@H](C)c1ccccc1)[C@@H](C)c1ccccc1 [Peptoid 14, H-NLys-NhTrp-NhTrp-NLys-Nspe-Nspe-NLys-Nspe-Nspe-NLys-Nspe-Nspe-NH2]",23.6,43.4,1.6,<0.8,3.1,3.1,almost no peptoid decomposition occurred,,1.6,< 0.8,6.3,3.1,9.7,,,,HC10 (red blood cells): 12.5 µM; HC50 (red blood cells): 21.1 µM
"C[C@@H](c1ccccc1)N(CC(=O)N(CCCCN)CC(=O)N(CCc1c[nH]c2ccccc12)CC(=O)N(CCc1c[nH]c2ccccc12)CC(N)=O)C(=O)CN(CCCCN)C(=O)CN(CCCCN)C(=O)CN(C(=O)CN(C(=O)CN(CCCCN)C(=O)CN(C(=O)CN(C(=O)CNCCCCN)[C@@H](C)c1ccccc1)[C@@H](C)c1ccccc1)[C@@H](C)c1ccccc1)[C@@H](C)c1ccccc1 [Peptoid 29, H-NLys-Nspe-Nspe-NLys-Nspe-Nspe-NLys-NLys-Nspe-NLys-NhTrp-NhTrp-NH2] (H-[Nlys][Nspe][Nspe][Nlys][Nspe][Nspe][Nlys][Nlys][Nspe][Nlys][Gly(N(CH2)2(3-indolyl))][Gly(N(CH2)2(3-indolyl))]-NH2)",,,12.5,6.3,6.3,6.3,almost no peptoid decomposition occurred,50,3.1,1.6,6.3,3.1,,20,20,18.8,
"C[C@@H](c1ccccc1)N(CC(N)=O)C(=O)CN(CCCCN)C(=O)CN(CCCCN)C(=O)CN(C(=O)CN(C(=O)CN(CCCCN)C(=O)CN(C(=O)CN(C(=O)CN(CCCCN)C(=O)CN(CCc1c[nH]c2ccccc12)C(=O)CN(CCc1c[nH]c2ccccc12)C(=O)CNCCCCN)[C@@H](C)c1ccccc1)[C@@H](C)c1ccccc1)[C@@H](C)c1ccccc1)[C@@H](C)c1ccccc1 [Peptoid 32, H-NLys-NhTrp-NhTrp-NLys-Nspe-Nspe-NLys-Nspe-Nspe-NLys-NLys-Nspe-NH2]",,,,3.1,6.3,6.3,almost no peptoid decomposition occurred,25,6.3,3.1,6.3,3.1,14.5,20,20,17.1,MIC S. aureus ATCC 25923 (S. aureus ATCC 25923; ATCC 25923): 3.1 µM
